Measurements as given in ChEMBL document CHEMBL3612063, “Multistage virtual screening and identification of novel HIV-1 protease inhibitors by integrating SVM, shape, pharmacophore and docking methods” (Eur J Med Chem, 2015).
The source made the active and inactive calls. The calls are words filed in the database; no cut-off is given here. Square brackets hold non-standard residues; d marks the D form. Peptide text beside a SMILES is read from it. * marks the point of attachment. Hyp = O=C(O)[C@@H]1C[C@@H](O)CN1; ONp = O=[N+]([O-])c1ccc(O*)cc1; Cbz = O=C(OCc1ccccc1)*; Boc = CC(C)(C)OC(=O)*; OBn = c1ccc(CO*)cc1

Key:
[1] = target: Protease (Human immunodeficiency virus 1) (UniProt Q9YQ12); experiment: Inhibition of recombinant HIV1 protease at 2 uM using FRET substrate peptide by FRET assay
Chain of Protease (Human immunodeficiency virus 1) (Q9YQ12 as listed by the source): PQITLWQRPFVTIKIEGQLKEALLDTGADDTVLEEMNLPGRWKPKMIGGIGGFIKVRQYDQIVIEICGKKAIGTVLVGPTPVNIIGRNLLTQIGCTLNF

[2] = target: Protease (Human immunodeficiency virus 1) (UniProt Q9YQ12); experiment: Inhibition of recombinant HIV1 protease at 1 mM using FRET substrate peptide by FRET assay
[3] = target: Protease (Human immunodeficiency virus 1, UniProt Q9YQ12); experiment: Inhibition of recombinant HIV1 protease using FRET substrate peptide by FRET assay
Chain of Protease (Q9YQ12 whole entry): as the sequence (Q9YQ12 as listed by the source) above

SMILES	inhibition [1]	inhibition [2]	IC50 [3] [µM]
CC(C)CC(=O)N[C@H](C(=O)N[C@H](C(=O)N[C@@H](CC(C)C)[C@@H](O)CC(=O)N[C@@H](C)C(=O)N[C@@H](CC(C)C)[C@@H](O)CC(=O)O)C(C)C)C(C)C	Active	–	–
CC(C)C[C@@H](NC(=O)[C@H](CSCc1ccccc1)NC(=O)OCc1ccccc1)C(=O)OCc1ccccc1	–	inactive	–
C[C@@H](NC(=O)[C@H](Cc1ccccc1)NC(=O)[C@H](Cc1ccccc1)NC(=O)OC(C)(C)C)C(=O)OCc1ccccc1	–	inactive	–
CC(C)[C@H](NC(=O)[C@H](Cc1ccccc1)NC(=O)OC(C)(C)C)C(=O)NCC(=O)OCc1ccccc1 (Boc-Phe-Val-Gly-OBn)	–	inactive	–
COC(=O)[C@H](Cc1ccc(O)cc1)NC(=O)[C@H](CC(C)C)NC(=O)[C@H](CO)NC(=O)OCc1ccccc1 (Cbz-Ser-Leu-Tyr-OMe)	–	Active	162
COC(=O)[C@H](CC(C)C)NC(=O)[C@H](Cc1ccccc1)NC(=O)[C@H](CO)NC(=O)OCc1ccccc1 (Cbz-Ser-Phe-Leu-OMe)	–	Active	62
O=C(CNC(=O)[C@@H]1CCCN1C(=O)[C@@H]1C[C@@H](O)CN1C(=O)OCc1ccccc1)Oc1ccc([N+](=O)[O-])cc1 (Cbz-[Hyp]-Pro-Gly-ONp)	–	inactive	–
